# ChEMBL document CHEMBL3046898, “Synthesis and characterization of flurbiprofen hydrazide derivatives as potential anti-HCV, anticancer and antimicrobial agents” (2013)
# Activity calls are given as the source filed them. No cut-off for these calls is given here.
# Assays:
# [1] = system: Pichia membranifaciens; assay: Antifungal activity against Pichia membranifaciens at 10 mg/ml after 48 hrs by disc diffusion method; format: functional, organism-based
# [2] = system: Klebsiella aerogenes; assay: Antibacterial activity against Enterobacter aerogenes at 10 mg/ml after 24 hrs by disc diffusion method; format: functional, organism-based
# [3] = system: Candida parapsilosis; assay: Antifungal activity against Candida parapsilosis at 10 mg/ml after 48 hrs by disc diffusion method; format: functional, organism-based
# [4] = system: Acinetobacter radioresistens; assay: Antibacterial activity against Acinetobacter radioresistens at 10 mg/ml after 24 hrs by disc diffusion method; format: functional, organism-based
# [5] = system: Photorhabdus luminescens; assay: Antibacterial activity against Photorhabdus luminescens at 6.25 to 200 ug/ml after 24 hrs by microwell dilution method; format: functional, organism-based
# [6] = system: Photorhabdus luminescens; assay: Antibacterial activity against Photorhabdus luminescens at 10 mg/ml after 24 hrs by disc diffusion method; format: functional, organism-based
# [7] = system: Escherichia coli; assay: Antibacterial activity against Escherichia coli at 10 mg/ml after 24 hrs by disc diffusion method; format: functional, organism-based
# [8] = system: Schwanniomyces occidentalis; assay: Antifungal activity against Schwanniomyces occidentalis at 10 mg/ml after 48 hrs by disc diffusion method; format: functional, organism-based
# [9] = system: Nakaseomyces glabratus; assay: Antifungal activity against Candida glabrata at 10 mg/ml after 48 hrs by disc diffusion method; format: functional, organism-based
# [10] = system: Micrococcus luteus; assay: Antibacterial activity against Micrococcus luteus at 6.25 to 200 ug/ml after 24 hrs by microwell dilution method; format: functional, organism-based
# [11] = system: Proteus vulgaris; assay: Antibacterial activity against Proteus vulgaris at 6.25 to 200 ug/ml after 24 hrs by microwell dilution method; format: functional, organism-based
# [12] = system: Salmonella paratyphi; assay: Antibacterial activity against Salmonella paratyphi at 6.25 to 200 ug/ml after 24 hrs by microwell dilution method; format: functional, organism-based; settings: Salmonella enterica subsp. enterica serovar Paratyphi A
# [13] = system: Micrococcus lylae; assay: Antibacterial activity against Micrococcus lylae at 6.25 to 200 ug/ml after 24 hrs by microwell dilution method; format: functional, organism-based
# [14] = system: Pseudomonas aeruginosa; assay: Antibacterial activity against Pseudomonas aeruginosa at 10 mg/ml after 24 hrs by disc diffusion method; format: functional, organism-based
# [15] = system: Acinetobacter radioresistens; assay: Antibacterial activity against Acinetobacter radioresistens at 6.25 to 200 ug/ml after 24 hrs by microwell dilution method; format: functional, organism-based
# [16] = system: Staphylococcus cohnii; assay: Antibacterial activity against Staphylococcus cohnii at 6.25 to 200 ug/ml after 24 hrs by microwell dilution assay; format: functional, organism-based
# [17] = system: Micrococcus lylae; assay: Antibacterial activity against Micrococcus lylae at 10 mg/ml after 24 hrs by disc diffusion method; format: functional, organism-based
# [18] = system: Proteus vulgaris; assay: Antibacterial activity against Proteus vulgaris at 10 mg/ml after 24 hrs by disc diffusion method; format: functional, organism-based
# [19] = system: Micrococcus luteus; assay: Antibacterial activity against Micrococcus luteus at 10 mg/ml after 24 hrs by disc diffusion method; format: functional, organism-based
# [20] = system: Salmonella paratyphi; assay: Antibacterial activity against Salmonella paratyphi at 10 mg/ml after 24 hrs by disc diffusion method; format: functional, organism-based; settings: Salmonella enterica subsp. enterica serovar Paratyphi A
# [21] = system: Staphylococcus aureus; assay: Antibacterial activity against Staphylococcus aureus at 10 mg/ml after 24 hrs by disc diffusion method; format: functional
# [22] = system: T47D; assay: Cytotoxicity against human T47D assessed as cell growth at 10 uM after 48 hrs by SRB assay; format: functional; settings: read-out: Activity
# [23] = system: Candida albicans; assay: Antifungal activity against Candida albicans at 10 mg/ml after 48 hrs by disc diffusion method; format: functional, organism-based
# [24] = system: Staphylococcus cohnii; assay: Antibacterial activity against Staphylococcus cohnii at 10 mg/ml after 24 hrs by disc diffusion method; format: functional
# [25] = system: Staphylococcus aureus; assay: Antibacterial activity against Staphylococcus aureus at 6.25 to 200 ug/ml after 24 hrs by microwell dilution assay; format: functional, organism-based
# [26] = system: Candida tropicalis; assay: Antifungal activity against Candida tropicalis at 10 mg/ml after 48 hrs by disc diffusion method; format: functional, organism-based
# [27] = system: Escherichia coli; assay: Antibacterial activity against Escherichia coli at 6.25 to 200 ug/ml after 24 hrs by microwell dilution method; format: functional, organism-based
# [28] = system: Aspergillus; assay: Antifungal activity against Aspergillus at 10 mg/ml after 72 hrs by disc diffusion method; format: functional, organism-based
# [29] = system: Hepacivirus hominis; assay: Inhibition of HCV N-terminal His-tagged NS5B RNA dependent RNA polymerase expressed in Escherichia coli DH5alpha using poly rA/U12 as primer at 200 uM after 60 mins by liquid scintillation counting
# [30] = system: Klebsiella aerogenes; assay: Antibacterial activity against Enterobacter aerogenes at 6.25 to 200 ug/ml after 24 hrs by microwell dilution method; format: functional, organism-based
# [31] = system: Pseudomonas aeruginosa; assay: Antibacterial activity against Pseudomonas aeruginosa at 6.25 to 200 ug/ml after 24 hrs by microwell dilution method; format: functional, organism-based
# [32] = system: Kluyveromyces marxianus; assay: Antifungal activity against Kluyveromyces marxianus at 10 mg/ml after 48 hrs by disc diffusion method; format: functional, organism-based
# [33] = system: CAKI-1; assay: Cytotoxicity against human Caki1 assessed as cell growth at 10 uM after 48 hrs by SRB assay; format: functional; settings: CAKI-1, 48 h, read-out: Activity
# [34] = system: Micrococcus luteus; assay: Antibacterial activity against Micrococcus luteus at 100 to 200 ug/ml after 24 hrs by microwell dilution assay; format: functional, organism-based
# [35] = system: Staphylococcus aureus; assay: Antibacterial activity against Staphylococcus aureus at 100 to 200 ug/ml after 24 hrs by microwell dilution assay; format: functional, organism-based
# [36] = system: PC-3; assay: Cytotoxicity against human PC3 assessed as cell growth at 10 uM after 48 hrs by SRB assay; format: functional; settings: PC-3, 48 h, read-out: Activity
# [37] = system: Staphylococcus cohnii; assay: Antibacterial activity against Staphylococcus cohnii at 100 to 200 ug/ml after 24 hrs by microwell dilution assay; format: functional, organism-based
# [38] = system: MDA-MB-468; assay: Cytotoxicity against human MDA-MB-468 assessed as cell growth at 10 uM after 48 hrs by SRB assay; format: functional; settings: MDA-MB-468, 48 h, read-out: Activity
SMILES,Activity [1],Activity [2],Activity [3],Activity [4],Activity [5],Activity [6],Activity [7],Activity [8],Activity [9],Activity [10],Activity [11],Activity [12],Activity [13],Activity [14],Activity [15],Activity [16],Activity [17],Activity [18],Activity [19],inhibition [29] [%],also measured
CC(C(=O)N/N=C/c1c(F)cccc1F)c1ccc(-c2ccccc2)c(F)c1 (configuration not stated),inactive,inactive,inactive,inactive,inactive,inactive,inactive,inactive,inactive,inactive,inactive,inactive,inactive,inactive,inactive,inactive,inactive,inactive,inactive,8,Activity [20]: inactive; Activity [21]: inactive; growth at 10 µM [22]: 55.3%; Activity [23]: inactive; Activity [24]: inactive; Activity [25]: inactive; Activity [26]: inactive; Activity [27]: inactive; Activity [28]: inactive; Activity [30]: inactive; Activity [31]: inactive; Activity [32]: inactive
CC(C(=O)NN1C(=O)CSC1c1ccc(Cl)cc1)c1ccc(-c2ccccc2)c(F)c1 (configuration not stated),,,,,,,,,,,,,,,,,,,,8,growth at 10 µM [33]: 29.6%; Activity [34]: Active; Activity [35]: Active; growth at 10 µM [36]: 49.2%; growth at 10 µM [22]: 50.9%; Activity [37]: Active
CCN1C(=O)CS/C1=N\NC(=O)C(C)c1ccc(-c2ccccc2)c(F)c1 (configuration not stated),inactive,inactive,inactive,inactive,inactive,inactive,inactive,inactive,inactive,inactive,inactive,inactive,inactive,inactive,inactive,inactive,inactive,inactive,inactive,8,growth at 10 µM [38]: 43.6%; Activity [20]: inactive; Activity [21]: inactive; growth at 10 µM [22]: 55.2%; Activity [23]: inactive; Activity [24]: inactive; Activity [25]: inactive; Activity [26]: inactive; Activity [27]: inactive; Activity [28]: inactive; Activity [30]: inactive; Activity [31]: inactive; Activity [32]: inactive
CC(C(=O)NN1C(=O)CSC1c1ccc([N+](=O)[O-])o1)c1ccc(-c2ccccc2)c(F)c1 (configuration not stated),,,,,,,,,,,,,,,,,,,,8,Activity [34]: Active; Activity [35]: Active; zone of inhibition at 10000 µg/mL ([21]; read-out: DIZ): 10 mm; zone of inhibition at 10000 µg/mL ([24]; read-out: DIZ): 10 mm; Activity [37]: Active
CC(C(=O)NNC(=S)NCc1ccccc1)c1ccc(-c2ccccc2)c(F)c1 (configuration not stated),inactive,inactive,inactive,inactive,inactive,inactive,inactive,inactive,inactive,inactive,inactive,inactive,inactive,inactive,inactive,inactive,inactive,inactive,inactive,8,Activity [20]: inactive; Activity [21]: inactive; Activity [23]: inactive; Activity [24]: inactive; Activity [25]: inactive; Activity [26]: inactive; Activity [27]: inactive; Activity [28]: inactive; Activity [30]: inactive; Activity [31]: inactive; Activity [32]: inactive
CCNC(=S)NNC(=O)C(C)c1ccc(-c2ccccc2)c(F)c1 (configuration not stated),inactive,inactive,inactive,inactive,inactive,inactive,inactive,inactive,inactive,inactive,inactive,inactive,inactive,inactive,inactive,inactive,inactive,inactive,inactive,8,Activity [20]: inactive; Activity [21]: inactive; Activity [23]: inactive; Activity [24]: inactive; Activity [25]: inactive; Activity [26]: inactive; Activity [27]: inactive; Activity [28]: inactive; Activity [30]: inactive; Activity [31]: inactive; Activity [32]: inactive
CC(C(=O)NN1C(=O)CSC1c1ccccc1Cl)c1ccc(-c2ccccc2)c(F)c1 (configuration not stated),inactive,inactive,inactive,inactive,inactive,inactive,inactive,inactive,inactive,inactive,inactive,inactive,inactive,inactive,inactive,inactive,inactive,inactive,inactive,70,Activity [20]: inactive; Activity [21]: inactive; Activity [23]: inactive; Activity [24]: inactive; Activity [25]: inactive; Activity [26]: inactive; Activity [27]: inactive; Activity [28]: inactive; Activity [30]: inactive; Activity [31]: inactive; Activity [32]: inactive
CC(C(=O)NN1C(=O)CSC1c1cccc(F)c1)c1ccc(-c2ccccc2)c(F)c1 (configuration not stated),inactive,inactive,inactive,inactive,inactive,inactive,inactive,inactive,inactive,inactive,inactive,inactive,inactive,inactive,inactive,inactive,inactive,inactive,inactive,8,Activity [20]: inactive; Activity [21]: inactive; Activity [23]: inactive; Activity [24]: inactive; Activity [25]: inactive; Activity [26]: inactive; Activity [27]: inactive; Activity [28]: inactive; Activity [30]: inactive; Activity [31]: inactive; Activity [32]: inactive
